What all share (assay type): cell-based, mouse
For one test, the system named is HIF-2a. As to the kind of experiment: Immunoblot on nuclear extracts for HIF-2a in treated CD8+ T-lymphocytes. The following applies: 0.5 mM, 1 day or 7 days of treatment. On the procedure:
The arrow indicates HIF-2a protein.
Nuclear and cytosolic fractions were prepared from cells with the NE-PER kit (Thermo Scientific) and separated by SDS-PAGE. Proteins were transferred to PVDF membranes and then blocked in 5% milk prepared in phosphate-buffered saline (PBS) plus 0.05% Tween 20. Membranes were then incubated with primary antibodies overnight at 4° C. and horseradish peroxidase (HRP)-conjugated secondary antibodies for 1 h the next day. The following primary antibodies were used at a dilution of 1:1000: HIF1α (Novus), HIF2α (Novus), PDH-E1α (Abcam), PDH-E1α pS232 (Calbiochem), LaminB1 (Abcam), HDAC1 (Abcam), β-tubulin (Abcam), 4E-BP1 (Cell Signalling), phospho-4E-BP1 (S65) (Cell Signalling), phospho-4E-BP1 (T37/T46) (Cell Signalling) S6K (Cell Signalling), phopho-S6K (T389) (Cell Signalling), phopho-S6K (S371) (Cell Signalling).

Another test has as its system EG7-OVA cells. As to the kind of experiment: In vitro cytotoxicity assay (specific killing by OT-I CD8+ T-lymphocytes). The conditions noted are these: 0.5 mM for 24 h, 4 hours with target and control cells. On the procedure:
(§1) Total splenocytes were activated for 48 h with 1000 nM SIINFEKL and then expanded for a further 4 days in the presence of IL-2 followed by treatment 0.5 mM of S-2HG-octyl R-2HG-octyl ester ester for 24 h. OT-I CD8^+ T-lymphocytes were incubated with target and control cells for 4 hours. n=3 mice per condition. […] Cells were activated for 48 h with αCD3+αCD28 antibodies and then expanded for a further 4 days in the presence of IL-2 followed by treatment with the indicated concentration of S-2HG-octyl ester or R-2HG-octyl ester for 24 hours. n≥16 mice.
Total splenocytes from OT-I mice were activated with SIINFEKL-peptide for 48 h and expanded for a further 4 days in IL-2 containing medium. OT-I-specific CD8^+ T-cells were then treated for 24 h with or without 0.5 mM S-2HG-octyl ester or R-2HG-octyl ester and then incubated with target (EG7-OVA, CFSE-low) and control (EL4, CFSE high) cells. Specific lysis was calculated by normalization of the loss in signal of the CFSE-low population relative to the CFSE-high population after co-culture of 4 hours with the vehicle or S-2HG-octyl ester or R-2HG-octyl ester-treated OT-I-specific CD8^+ T-cells.

Test [1] relates to CD8^+ T-lymphocytes. The test can be described thus: IFN-γ and IL-2 protein in media. The conditions noted are these: 0.5 mM, 24 h. On the procedure: as §1
CD8^+ T-cells were expanded for 4 days and then treated for 16 h with S-2HG octyl ester or R-2HG octyl ester. Glucose and lactate levels in culture medium were measured with a Dade-Behring Dimension RXL analyser. Changes in metabolite concentrations relative to fresh media were normalized to viable cell counts. VEGF, IL-2 and IFN-γ protein levels in media were determined using the following kits from MesoScale Discovery: K150BMC-2 for VEGF, K15048D-2 for IFN-γ and K152QQD-2 for IL-2. Values were normalized to viable cell counts.

A further test deals with OT-I CD8^+ T-lymphocytes. The test can be described thus: Survival in the absence of IL-2 supplementation. The following applies: 0.5 mM. On the procedure: OT-I CD8^+ T-lymphocytes were incubated with target and control cells for 4 hours. n=3 mice per condition. […]
Cells were counted on an ADAM-MC automated cell counter (NanoEnTek) and viability was assessed by the exclusion of propidium iodide. Cell volume was determined using a Z2 Coulter counter (Beckman Coulter).

Test [2] relates to CD8^+ T-lymphocytes. The test can be described thus: qRT-PCR of differentiation, memory and pluripotency associated genes. The following applies: 0.5 mM; for transcript levels of Eomes, acute treatment: 24 h; for expression of pluripotency associated genes (Oct3/4, Sox2, Nanog, Klf4): with IL2; for Il2 and Ifng mRNA expression: 24 h or 7 days; for Eomes expression levels after continuous treatment: 7 days. On the procedure: FIGS. 8E, 8F and 8G show expression of II2(8E), Ifng (8F), and Eomes (8G) mRNA in CD8^+ T-lymphocytes activated for 48 h with αCD3+αCD28 antibodies and then expanded for a further 2 days in the presence of IL-2. Cells were then treated for either 24 h or 7 days with or without 0.5 mM S-2HG-octyl ester or R-2HG-octyl ester. n≥4 mice per group.
Activated CD8^+ T-lymphocytes were treated with 0.5 mM of either S-2HG-octyl ester or R-2HG-octyl ester for 1 day or 7 days in the presence of IL2. The induction seen with R-2HG-octyl ester is weaker than with S-2HG-octyl ester. Each dot represents an individual donor mouse, n=4 mice. error bars denote the s.d.
RNA was isolated using the RNeasy kit (Qiagen). 1 μg of RNA was used for cDNA synthesis with the First-Strand Synthesis kit (Invitrogen). All samples were run in technical triplicates using a StepOnePlus system (Applied Biosystems) with SYBR green.
In general terms: Quantitative PCR measures a nucleic acid by following its amplification.

The test system of test [3] is CD8^+ T-lymphocytes. As to the kind of experiment: Flow cytometry of CD44 and CD62L surface expression. The following applies: for CD62L effect when treating CD62L^low CD44^high effector cells: 0.5 mM added after 7 days of vehicle; for reversibility of the CD62L effect upon withdrawal of treatment: 0.5 mM for 7 days then washout, followed 9 more days; for formation of a CD62L^high CD44^high population / effect on CD62L when HIF-1α is absent / CD62L downregulation in HIF-2a null cells: 0.5 mM; for formation of a CD62L^high CD44^high population: with IL-2, antigen specific (OT-I) and polyclonal CD8+ T-lymphocytes; for effect on CD62L when HIF-1α is absent: Hif1α^−/− CD8+ T-lymphocytes; for CD62L downregulation in HIF-2a null cells: Hif2α^−/− CD8+ T-lymphocytes, versus wild type controls. From the text: Data are representative of n=4 individual mice.
Data are representative of 3 mice per genotype.
Data are representative of 2 mice per genotype.
Data are representative of n=3 individual mice.
Cells were stained and acquired on a Fortessa (BD Biosciences). […] For staining of nuclear-located marker Eomes, the Transcription Factor Staining Buffer Set (eBioscience) was used, according to the manufacturer's instructions. For staining of intracellular cytokines, OT-I cells were re-stimulated with […] peptide for 4 h with GolgiStop solution (BD). For ^1H-NMR experiments, CD8^+ T-lymphocytes were sorted from total splenocytes by immunostaining with anti-mouse CD8-AF647 (Biolegend) on a MoFlo (Beckman Coulter). Cells were then activated and cultured as described above.

`CCCCCCCCOC(=O)[C@H](O)CCC(=O)O` [R-2HG-octyl ester]: the “abundance of HIF-2a protein” value in the test with HIF-2a was “increase in the abundance”. Also, the “lytic ability of antigen specific OT-I CD8+ T-cells” value with EG7-OVA cells is recorded as “markedly lower”. Also, in the test on CD8^+ T-lymphocytes [1], the “production of interleukin-2 (IL-2)” value is “increased” and the “secretion of interferon-γ (IFN-γ)” value was “decreased”. Further, in the test with OT-I CD8^+ T-lymphocytes, the “ability to survive in the absence of IL-2 supplementation” value is “elevated ability to survive”. In the test on CD8^+ T-lymphocytes [2], the “expression of memory associated transcripts (including Ccr7)” value is reported as “increased”; the “transcript levels of Eomes, acute treatment” value is listed as “represses”; the “Il2 and Ifng mRNA expression” value was “mediated at the transcriptional level”; the “Eomes expression levels after continuous treatment” value is on record as “higher expression levels”. In the test with CD8^+ T-lymphocytes [2] (1 day or 7 days), the “induction of pluripotency associated genes compared with S-2HG-octyl ester” value is listed as “weaker” and the “expression of pluripotency associated genes (Oct3/4, Sox2, Nanog, Klf4)” value is listed as “induces the expression”. Further, in the test on CD8^+ T-lymphocytes [3], the “CD62L effect when treating CD62L^low CD44^high effector cells” value is “does not occur”, the “reversibility of the CD62L effect upon withdrawal of treatment” value is “reversible”, the “formation of a CD62L^high CD44^high population” value was “promotes the formation” and the “effect on CD62L when HIF-1α is absent” value is “masks the effects”. Moreover, the “CD62L downregulation in HIF-2a null cells” value in the test with CD8^+ T-lymphocytes [3] is “inhibits CD62L downregulation”.

With `CCCCCCCCOC(=O)[C@@H](O)CCC(=O)O` [S-2HG-octyl ester, S-2HG octyl ester], the “abundance of HIF-2a protein” value in the test on HIF-2a is on record as “increase in the abundance”. In addition, the “lytic ability of antigen specific OT-I CD8+ T-cells” value in the test with EG7-OVA cells was “markedly lower”. Also, in the test with CD8^+ T-lymphocytes [1], the “production of interleukin-2 (IL-2)” value is given as “increased” and the “secretion of interferon-γ (IFN-γ)” value was “decreased”. Further, in the test on OT-I CD8^+ T-lymphocytes, the “ability to survive in the absence of IL-2 supplementation” value was “elevated ability to survive”. Besides, in the test with CD8^+ T-lymphocytes [2], the “expression of memory associated transcripts (including Ccr7)” value is “increased”; the “transcript levels of Eomes, acute treatment” value is reported as “represses”; the “Il2 and Ifng mRNA expression” value is on record as “mediated at the transcriptional level”; the “Eomes expression levels after continuous treatment” value was “higher expression levels”. Moreover, the “expression of pluripotency associated genes (Oct3/4, Sox2, Nanog, Klf4)” value with CD8^+ T-lymphocytes [2] (1 day or 7 days) is on record as “induces the expression”. Also, in the test with CD8^+ T-lymphocytes [3], the “CD62L effect when treating CD62L^low CD44^high effector cells” value was “does not occur”, the “reversibility of the CD62L effect upon withdrawal of treatment” value is given as “reversible”, the “formation of a CD62L^high CD44^high population” value is reported as “promotes the formation” and the “effect on CD62L when HIF-1α is absent” value is reported as “masks the effects”. For the same molecule, in the test on CD8^+ T-lymphocytes [3], the “CD62L downregulation in HIF-2a null cells” value is “inhibits CD62L downregulation”.

The values are drawn from patent US20190316085A1, “Methods Of T-Lymphocyte Expansion” (Cambridge Enterprise Limited, priority 2015, published 2019).
